This is an account of results in patent publication US12421193B2, “GPR52 modulators and methods of use” (Neurocrine Biosciences, Inc., priority 2020, dated 2025).

Counter-ions that a name gives are not always drawn. Bounds are passed on as bounds.

What is called EC50 is the concentration that produces a half-maximal response.

The target in this test is T1, recombinant human GPR52 (Homo sapiens, UniProt Q9Y2T5).
T1 construct: expressed in transfected cells
T1 sequence (Q9Y2T5 whole entry): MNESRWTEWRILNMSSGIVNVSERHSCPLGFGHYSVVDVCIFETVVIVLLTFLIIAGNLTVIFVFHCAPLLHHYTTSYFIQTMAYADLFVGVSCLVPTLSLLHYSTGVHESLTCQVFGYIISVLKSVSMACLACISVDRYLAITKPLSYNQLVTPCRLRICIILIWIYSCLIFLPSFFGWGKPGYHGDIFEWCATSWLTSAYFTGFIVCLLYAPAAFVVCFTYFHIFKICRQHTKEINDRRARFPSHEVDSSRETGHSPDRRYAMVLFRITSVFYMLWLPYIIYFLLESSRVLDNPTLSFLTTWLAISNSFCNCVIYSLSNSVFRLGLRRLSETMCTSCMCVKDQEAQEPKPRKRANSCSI
In words: TR-FRET cAMP assay (LANCE Ultra cAMP Kit), GPR52 activity. The class given is cell-based. The following applies: Flp-In-CHO cells stably expressing recombinant human GPR52; cAMP production, normalized to the positive control. The method, then: TR-FRET cAMP assays were performed using commercially available assay kits (LANCE™ Ultra cAMP Kit). Controls and compounds were solubilized in DMSO using ½ log dilution to generate duplicate 10-point dose response curves in 384-well polypropylene compound plates. Sixty nanoliters of the diluted compounds were transferred into 384-well NBS assay plates and further diluted to 1× with the addition of 2000 cells per well. Flp-In™—CHO cells that stably express recombinant human GPR52.
Cells were harvested with cell stripper and resuspended in Stimulation Buffer (5 mM HEPES, 0.1% bovine serum albumin (BSA), 0.5 mM IBMX, pH 7.4). After thirty minutes incubation at room temperature, detection reagents were added to each well. Plates were then incubated for 30 minutes at room temperature. The LANCE™ Ultra cAMP assay uses time-resolved fluorescence resonance energy transfer (TR-FRET) to detect cAMVP production; this signal was quantified using a Pherastar multi-mode plate reader.
Dose-response curves were generated from the fluorescence counts normalized to the positive control. E EC50 values were obtained using a nonlinear regression curve-fitting program.
Background: In TR-FRET formats the signal depends on donor and acceptor labels being close together.
In the case of `Cc1cc(F)ccc1OCc1ccnc(-c2ccc(C(N)=O)c(C)c2)c1` [Example 29, 4-[4-(4-fluoro-2-methylphenoxymethyl)pyridin-2-yl]-2-methylbenzamide], the concentration giving a half-maximal response (EC50) lay within 101 to 1000 nM.
The value for `Cc1cc(-c2cc(COc3cc(F)c(F)c(Cl)c3)ccn2)ccc1C(N)=O` [Example 54, 4-[4-(3-chloro-4,5-difluorophenoxymethyl)pyridin-2-yl]-2-methylbenzamide] was < 25 nM; that for `Cc1ccc(F)c(OCc2ccnc(-c3ccc(C(N)=O)c(C)c3)c2)c1` [Example 14, 4-[4-(2-fluoro-5-methylphenoxymethyl)pyridin-2-yl]-2-methylbenzamide] was 101 to 1000 nM; that for `Cc1cc(-c2ccnc(COc3ccc(C#N)c(F)c3F)c2)ccc1C(N)=O` [Example 84, 4-[2-(4-cyano-2,3-difluorophenoxymethyl)pyridin-4-yl]-2-methylbenzamide] was 101 to 1000 nM.
The value for `Cc1cc(-c2cncc(COc3ccc(F)cc3)c2)ccc1C(N)=O` [Example 97, 4-[5-(4-fluorophenoxymethyl)pyridin-3-yl]-2-methylbenzamide] was > 1000 nM; that for `Cc1ccc(OCc2cncc(-c3ccc(C(N)=O)c(C)c3)c2)cc1F` [Example 89, 4-[5-(3-fluoro-4-methylphenoxymethyl)pyridin-3-yl]-2-methylbenzamide] was 25 to 100 nM; that for `Cc1cccc(OCc2ccnc(-c3ccc(C(N)=O)c(C)c3)c2)c1` [Example 38, 4-[4-(3-methylphenoxymethyl)pyridin-2-yl]-2-methyl benzamide] was 25 to 100 nM.
Regarding `COc1cc(OCc2cncc(-c3ccc(C(N)=O)c(C)c3)c2)ccc1C#N` [Example 94, 4-[5-(4-cyano-3-methoxyphenoxymethyl)pyridin-3-yl]-2-methylbenzamide], the EC50 lay within 101 to 1000 nM.
With `COc1cc(OCc2ccnc(-c3ccc(C(N)=O)c(C)c3)c2)ccc1F` [Example 61, 4-[4-(4-fluoro-3-methoxyphenoxymethyl)pyridin-2-yl]-2-methylbenzamide], the EC50 is < 25 nM.
Regarding `Cc1cc(-c2cc(COc3ccc(Cl)cc3)ccn2)ccc1C(N)=O` [Example 40, 4-[4-(4-chlorophenoxymethyl)pyridin-2-yl]-2-methylbenzamide], the concentration for a half-maximal effect (EC50) is > 1000 nM.
The value for `Cc1cc(-c2cc(COc3ccc(C#N)c(F)c3)ccn2)ccc1C(N)=O` [Example 4, 4-[4-(4-cyano-3-fluorophenoxymethyl)pyridin-2-yl]-2-methylbenzamide hydrochloride] was 25 to 100 nM; that for `Cc1cc(-c2cc(COc3ccc(C#N)c(F)c3)ccn2)ccc1C(=O)NCCO` [Example 79, 4-[4-(4-cyano-3-fluorophenoxymethyl)pyridin-2-yl]-N-(2-hydroxyethyl)-2-methylbenzamide] was 101 to 1000 nM.
Regarding `Cc1cc(-c2cc(COc3ccc([N+](=O)[O-])cc3)ccn2)ccc1C(N)=O` [Example 33, 4-[4-(4-nitrophenoxymethyl)pyridin-2-yl]-2-methylbenzamide], the EC50 was < 25 nM.
The figure for `Cc1cc(-c2cc(COc3ccc(C(C)(C)O)cc3)ccn2)ccc1C(N)=O` [Example 69, 4-{4-[4-(2-hydroxypropan-2-yl)phenoxymethyl]pyridin-2-yl}-2-methylbenzamide] is 25 to 100 nM; for `Cc1cc(-c2cc(COc3cccc(S(C)(=O)=O)c3)ccn2)ccc1C(N)=O` [Example 5, 4-[4-(3-methanesulfonylphenoxymethyl)pyridin-2-yl]-2-methylbenzamide] it is 101 to 1000 nM; for `Cc1cc(-c2cc(COc3cccc(CCO)c3)ccn2)ccc1C(N)=O` [Example 16, 4-{4-[3-(2-hydroxyethyl)phenoxymethyl]pyridin-2-yl}-2-methylbenzamide] it is 101 to 1000 nM.
The value for `Cc1cc(-c2cncc(COc3ccc4cnn(C)c4c3)c2)ccc1C(N)=O` [Example 95, 4-(5-{[(1-methyl-1H-indazol-6-yl)oxy]methyl}pyridin-3-yl)-2-methylbenzamide] was > 1000 nM; that for `CC(=O)c1cccc(OCc2ccnc(-c3ccc(C(N)=O)c(C)c3)c2)c1` [Example 43, 4-[4-(3-acetylphenoxymethyl)pyridin-2-yl]-2-methylbenzamide] was 101 to 1000 nM.
The figure for `Cc1cc(-c2cc(COC3CCCCC3)ccn2)ccc1C(N)=O` [Example 104, 4-{4-[(cyclohexyloxy)methyl]pyridin-2-yl}-2-methylbenzamide] is 101 to 1000 nM; for `Cc1cc(-c2cc(COc3ccc(S(C)(=O)=O)cc3)ccn2)ccc1C(N)=O` [Example 6, 4-[4-(4-methanesulfonylphenoxymethyl)pyridin-2-yl]-2-methylbenzamide] it is 101 to 1000 nM; for `Cc1cc(-c2cncc(COc3cc(F)cc(F)c3)c2)ccc1C(N)=O` [Example 93, 4-[5-(3,5-difluorophenoxymethyl)pyridin-3-yl]-2-methylbenzamide] it is 101 to 1000 nM.
On to `N#Cc1ccc(OCc2ccnc(-c3ccc(C(N)=O)c(Cl)c3)c2)cc1F` [Example 77, 4-[4-(4-cyano-3-fluorophenoxymethyl)pyridin-2-yl]-2-chlorobenzamide], for which the EC50 lay in the range of 25 to 100 nM.
For the compound `Cc1cc(-c2ccnc(COc3ccc(C#N)c(F)c3)c2)ccc1C(N)=O` [Example 82, 4-[2-(4-cyano-3-fluorophenoxymethyl)pyridin-4-yl]-2-methylbenzamide], the concentration for a half-maximal effect (EC50) is 25 to 100 nM.
